Source: US10000456B2, “Polycyclic compounds as lysophosphatidic acid receptor antagonists” (AMIRA PHARMACEUTICALS, INC., priority 2009, dated 2018)

What follows are compounds tested on A2058 human melanoma cells (assay: LPA1 chemotaxis assay). Conditions: LPA 100 nM, read-out: IC50, inhibition of LPA-driven chemotaxis.
Assay type: cell-based
Method: Chemotaxis of the A2058 human melanoma cells was measured using the Neuroprobe CHEMOTX® System plates ([…], 5.7 mm diameter sites). The filter sites were coated with 0.001% fibronectin (Sigma) in 20 mM Hepes, pH 7.4 and allowed to dry. A2058 cells were serum-starved for 24 hours, then harvested with Cell Stripper and resuspended in DMEM containing 0.1% fatty-acid-free bovine serum albumin (BSA) to a concentration of 1×10^6/ml. Cells were mixed with an equal volume of test compound (2×) in DMEM containing 0.1% fatty-acid-free BSA and incubated at 37° C. for 15 minutes. LPA (100 nM in DMEM containing 0.1% fatty-acid-free BSA) or vehicle was added to each well of the lower chamber and 50 μl of the cell suspension/test compound mix was applied to the upper portion of the CHEMOTX® plate. Plates were incubated at 37° C. for three hours and then the cells removed from the upper portion by rinsing with PBS and scraping. The filter was dried then stained with HEMA 3® Staining System (Fisher Scientific). The absorbance of the filter was read at 590 nm and IC50s were determined using SYMYX® Assay Explorer.

SMILES | IC50 [nM]
Cc1noc(-c2ccc(-c3ccc(C4(C(=O)O)CC4)cc3)cc2)c1Nc1cccc(-c2ccccc2)c1 [Compound 39, 1-{4′-[4-(Biphenyl-3-ylamino)-3-methyl-isoxazol-5-yl]-biphenyl-4-yl}-cyclopropanecarboxylic acid] | < 100
Cc1noc(-c2ccc(-c3ccc(C4(C(=O)O)CC4)cc3)cc2)c1Nc1cncc(-c2cccc(C(F)(F)F)c2)c1 [Compound 68, 1-(4′-{3-Methyl-4-[5-(3-trifluoromethyl-phenyl)-pyridin-3-ylamino]-isoxazol-5-yl}-biphenyl-4-yl)-cyclopropanecarboxylic acid] | < 100
Cc1noc(-c2ccc(-c3ccc(C4(C(=O)O)CC4)cc3)cc2)c1Nc1cncc(-c2cccc(F)c2Cl)c1 [Compound 82, 1-(4′-{4-[5-(2-Chloro-3-fluoro-phenyl)-pyridin-3-ylamino]-3-methyl-isoxazol-5-yl}-biphenyl-4-yl)-cyclopropanecarboxylic acid] | < 100
Cc1noc(-c2ccc(-c3ccc(C4(C(=O)O)CC4)cc3)cc2)c1Nc1nccc(-c2ccccc2)n1 [Compound 66, 1-{4′-[3-Methyl-4-(4-phenyl-pyrimidin-2-ylamino)-isoxazol-5-yl]-biphenyl-4-yl}-cyclopropanecarboxylic acid] | < 100
Cc1noc(-c2ccc(-c3ccc(C4(C(=O)O)CC4)cc3)cc2)c1Nc1cccc(-c2cccc(C(F)(F)F)c2)n1 [Compound 41, 1-(4′-{3-Methyl-4-[6-(3-trifluoromethyl-phenyl)-pyridin-2-ylamino]-isoxazol-5-yl}-biphenyl-4-yl)-cyclopropanecarboxylic acid] | < 100
Cc1noc(-c2ccc(-c3ccc(C4(C(=O)O)CC4)cc3)cc2)c1Nc1cccc(-c2ccccc2Cl)n1 [Compound 60, 1-(4′-{4-[6-(2-Chloro-phenyl)-pyridin-2-ylamino]-3-methyl-isoxazol-5-yl}-biphenyl-4-yl)-cyclopropanecarboxylic acid] | < 100
Cc1noc(-c2ccc(-c3ccc(C4(C(=O)NS(C)(=O)=O)CC4)cc3)cc2)c1C(O)c1cn(Cc2ccccc2)nn1 (single isomer, unassigned) [Compound 91, N-[1-(4′-{4-[(1-Benzyl-1H-[1,2,3]triazol-4-yl)-hydroxy-methyl]-3-methyl-isoxazol-5-yl}-biphenyl-4-yl)-cyclopropanecarbonyl]-methanesulfonamide] | < 100
Cc1noc(-c2ccc(-c3ccc(C4(C(=O)O)CC4)cc3)cc2)c1Nc1cccc(Cc2ccccc2)c1 [Compound 49, 1-{4′-[4-(3-Benzyl-phenylamino)-3-methyl-isoxazol-5-yl]-biphenyl-4-yl}-cyclopropanecarboxylic acid] | < 100
Cc1noc(-c2ccc(-c3ccc(C4(C(=O)O)CC4)cc3)cc2)c1Nc1cncc(-c2ccccc2)c1 [Compound 58, 1-{4′-[3-Methyl-4-(5-phenyl-pyridin-3-ylamino)-isoxazol-5-yl]-biphenyl-4-yl}-cyclopropanecarboxylic acid] | < 100
Cc1noc(-c2ccc(-c3ccc(C4(C(=O)O)CC4)cc3)cc2)c1Nc1cccc(-c2ccccc2)n1 [Compound 33, 1-{4′-[3-Methyl-4-(6-phenyl-pyridin-2-ylamino)-isoxazol-5-yl]-biphenyl-4-yl}-cyclopropanecarboxylic acid] | < 100
Cc1noc(-c2ccc(-c3ccc(C4(C(=O)O)CC4)cc3)cc2)c1Nc1cccc(-c2cc(F)ccc2Cl)n1 [Compound 79, 1-(4′-{4-[6-(2-Chloro-5-fluoro-phenyl)-pyridin-2-ylamino]-3-methyl-isoxazol-5-yl}-biphenyl-4-yl)-cyclopropanecarboxylic acid] | < 100
COc1ccc(F)cc1-c1cccc(Nc2c(C)noc2-c2ccc(-c3ccc(C4(C(=O)O)CC4)cc3)cc2)n1 [Compound 75, 1-(4′-{4-[6-(5-Fluoro-2-methoxy-phenyl)-pyridin-2-ylamino]-3-methyl-isoxazol-5-yl}-biphenyl-4-yl)-cyclopropanecarboxylic acid] | < 100
Cc1noc(-c2ccc(-c3ccc(C4(C(=O)O)CC4)cc3)cc2)c1C(O)c1cncc(Cc2ccccc2)c1 (stereo not shown) [Compound 27, 1-(4′-{4-[(5-Benzyl-pyridin-3-yl)-hydroxy-methyl]-3-methyl-isoxazol-5-yl}-biphenyl-4-yl)-cyclopropanecarboxylic acid] | < 100
Cc1noc(-c2ccc(-c3ccc(C4(C(=O)O)CC4)cc3)cc2)c1C(O)c1nnc(Cc2ccccc2)o1 (stereo not shown) [Compound 13, 1-(4′-{4-[(5-Benzyl-[1,3,4]oxadiazol-2-yl)-hydroxy-methyl]-3-methyl-isoxazol-5-yl}-biphenyl-4-yl)-cyclopropanecarboxylic acid] | < 100
Cc1noc(-c2ccc(-c3ccc(C4(C(=O)O)CC4)cc3)cc2)c1Nc1cccc(Cc2ccccc2F)n1 [Compound 45, 1-(4′-{4-[6-(2-Fluoro-benzyl)-pyridin-2-ylamino]-3-methyl-isoxazol-5-yl}-biphenyl-4-yl)-cyclopropanecarboxylic acid] | < 100
Cc1noc(-c2ccc(-c3ccc(C4(C(=O)O)CC4)cc3)cc2)c1Nc1cccc(-c2cccc(F)c2)n1 [Compound 52, 1-(4′-{4-[6-(3-Fluoro-phenyl)-pyridin-2-ylamino]-3-methyl-isoxazol-5-yl}-biphenyl-4-yl)-cyclopropanecarboxylic acid] | < 100
Cc1noc(-c2ccc(-c3ccc(C4(C(=O)O)CC4)cc3)cc2)c1Nc1nnc(Cc2ccccc2)o1 [Compound 44, 1-{4′-[4-(5-Benzyl-[1,3,4]oxadiazol-2-ylamino)-3-methyl-isoxazol-5-yl]-biphenyl-4-yl}-cyclopropanecarboxylic acid] | < 100
Cc1noc(-c2ccc(-c3ccc(C4(C(=O)NS(C)(=O)=O)CC4)cc3)cc2)c1Nc1cccc(Cc2ccccc2)n1 [Compound 95, N-(1-{4′-[4-(6-Benzyl-pyridin-2-ylamino)-3-methyl-isoxazol-5-yl]-biphenyl-4-yl}-cyclopropanecarbonyl)-methanesulfonamide] | < 100
Cc1noc(-c2ccc(-c3ccc(C4(C(=O)O)CC4)cc3)cc2)c1Nc1cccc(Cc2ccccc2)n1 [Compound 38, 1-{4′-[4-(6-Benzyl-pyridin-2-ylamino)-3-methyl-isoxazol-5-yl]-biphenyl-4-yl}-cyclopropanecarboxylic acid] | < 100
Cc1noc(-c2ccc(-c3ccc(C4(C(=O)NS(C)(=O)=O)CC4)cc3)cc2)c1C(O)c1nnc(Cc2ccccc2)o1 (single isomer, unassigned) [Compound 92, N-[1-(4′-{4-[(5-Benzyl-[1,3,4]oxadiazol-2-yl)-hydroxy-methyl]-3-methyl-isoxazol-5-yl}-biphenyl-4-yl)-cyclopropanecarbonyl]-methanesulfonamide] | < 100
Cc1noc(-c2ccc(-c3ccc(C4(C(=O)O)CC4)cc3)cc2)c1Nc1cccc(-c2cccc(F)c2C)n1 [Compound 83, 1-(4′-{4-[6-(3-Fluoro-2-methyl-phenyl)-pyridin-2-ylamino]-3-methyl-isoxazol-5-yl}-biphenyl-4-yl)-cyclopropanecarboxylic acid] | < 100
Cc1noc(-c2ccc(-c3ccc(C4(C(=O)O)CC4)cc3)cc2)c1Nc1cncc(-c2ccccc2Cl)c1 [Compound 64, 1-(4′-{4-[5-(2-Chloro-phenyl)-pyridin-3-ylamino]-3-methyl-isoxazol-5-yl}-biphenyl-4-yl)-cyclopropanecarboxylic acid] | < 100
